Experimental findings from patent publication US20170280720A1, “ARGININE […] INHIBITORS AND USES THEREOF” (EPIZYME, INC., priority 2014, published 2017) are described below.

The target in the assay is T1, Human CARM1 (PRMT4) (Homo sapiens, UniProt Q86X55).
T1 construct: Flag-CARM1-His; made in house; host or cells: HEK 293F cells (BacMam baculovirus, pFastBacMam)
T1 sequence (Q86X55 2-585 isoform Q86X55-1): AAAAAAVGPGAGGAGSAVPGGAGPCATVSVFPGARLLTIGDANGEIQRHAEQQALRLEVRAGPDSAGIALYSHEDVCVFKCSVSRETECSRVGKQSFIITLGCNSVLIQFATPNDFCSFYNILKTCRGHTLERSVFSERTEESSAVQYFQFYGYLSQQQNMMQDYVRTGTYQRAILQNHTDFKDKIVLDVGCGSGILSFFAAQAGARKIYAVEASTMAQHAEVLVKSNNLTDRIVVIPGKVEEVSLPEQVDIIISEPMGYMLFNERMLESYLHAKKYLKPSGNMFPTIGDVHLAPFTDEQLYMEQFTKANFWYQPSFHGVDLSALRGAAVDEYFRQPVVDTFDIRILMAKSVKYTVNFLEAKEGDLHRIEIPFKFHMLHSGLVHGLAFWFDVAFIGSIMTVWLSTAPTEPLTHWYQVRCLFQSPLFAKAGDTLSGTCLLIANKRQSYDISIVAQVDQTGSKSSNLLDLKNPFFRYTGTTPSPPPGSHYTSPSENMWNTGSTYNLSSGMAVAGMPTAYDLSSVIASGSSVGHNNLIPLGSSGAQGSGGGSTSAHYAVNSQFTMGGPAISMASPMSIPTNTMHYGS
Description: CARM1 biochemical assay (3H-SAM Flashplate, peptide substrate). The following applies: read-out: CARM1_ IC50. The source says:
S-adenosylmethionine (SAM), S-adenosylhomocysteine (SAH), bicine, Tween20, dimethylsulfoxide (DMSO), bovine skin gelatin (BSG), sodium butyrate and Tris(2-carboxyethyl)phosphine hydrochloride solution (TCEP) were purchased from Sigma-Aldrich at the highest level of purity possible. ^3H-SAM was purchase from American Radiolabeled Chemicals with a specific activity of 80 Ci/mmol. 384-well streptavidin Flashplates were purchased from PerkinElmer.
Peptide representative of human histone H3 residues 16-30 was synthesized with an N-terminal linker-affinity tag motif and a C-terminal amide cap by 21st Century Biochemicals. The peptide was purified by high-performance liquid chromatography (HPLC) to greater than 95% purity and confirmed by liquid chromatography mass spectrometry (LC-MS). The sequence was Biot-Ahx-[…]-amide and contained a monomethylated arginine at position 26 (SEQ ID NO.: 14).
Human CARM1 (PRMT4) (NM_199141.1) transcript clone was amplified from an HEK 293 cDNA library, incorporating a flanking 5′ sequence encoding a FLAG tag ([…]) (SEQ ID NO.: 6) fused directly to Ala 2 of CARM1 and 3′ sequence encoding a hexa His sequence ([…]) (SEQ ID NO.: 15) fused directly to Ser 608. The gene sequence encoding isoform1 containing a deletion of amino acids 539-561 was amplified subsequently and subcloned into pFastBacMam (Viva Biotech).
Recombinant baculovirus were generated according to Bac-to-Bac kit instructions (Life Technologies). […] Infections were carried out at 37° C. for 48 hours, harvested by centrifugation, and stored at −80° C. for purification.
Column was washed with 500 mM NaCl in buffer A and Flag-CARM1-His was eluted with 200 ug/ml FLAG peptide in buffer A. Pooled fractions were dialyzed in 20 mM Tris, 150 mM NaCl, 5% glycerol and 1 mM DTT, pH 7.8. The purity of recovered protein was 94.
General Procedure for CARM1 Enzyme Assays on Peptide Substrates.
The assays were all performed in a buffer consisting of 20 mM Bicine (pH=7.6), 1 mM TCEP, 0.005% BSG, and 0.002% Tween 20, prepared on the day of use. Compounds in 100% DMSO (1 ul) were spotted into a polypropylene 384-well V-bottom plates (Greiner) using a Platemate Plus outfitted with a 384-channel head (Thermo Scientific). DMSO (1 ul) was added to Columns 11, 12, 23, 24, rows A-H for the maximum signal control and 1 ul of SAH, a known product and inhibitor of CARM1, was added to columns 11, 12, 23, 24, rows I-P for the minimum signal control. A cocktail (40 ul) containing the CARM1 enzyme was added by Multidrop Combi (Thermo-Fisher). The compounds were allowed to incubate with CARM1 for 30 min at room temperature, then a cocktail (10 ul) containing ^3H-SAM and peptide was added to initiate the reaction (final volume=51 ul). The final concentrations of the components were as follows: CARM1 was 0.25 nM, ^3H-SAM was 30 nM, peptide was 250 nM, SAH in the minimum signal control wells was 1 mM, and the DMSO concentration was 2%. The assays were stopped by the addition of non-radiolabeled SAM (10 ul) to a final concentration of 300 uM, which dilutes the ^3H-SAM to a level where its incorporation into the peptide substrate is no longer detectable. 50 ul of the reaction in the 384-well polypropylene plate was then transferred to a 384-well Flashplate and the biotinylated peptides were allowed to bind to the streptavidin surface for at least 1 hour before being washed once with 0.1% Tween20 in a Biotek ELx405 plate washer. The plates were then read in a PerkinElmer TopCount plate reader to measure the quantity of ^3H-labeled peptide bound to the Flashplate surface, measured as disintegrations per minute (dpm) or alternatively, referred to as counts per minute (cpm).
Where dpm=disintegrations per minute, cmpd=signal in assay well, and min and max are the respective minimum and maximum signal controls.
Where top and bottom are the normally allowed to float, but may be fixed at 100 or 0 respectively in a 3-parameter fit. […]

As a reminder, the IC50 is the concentration that inhibits the measured activity by half. In the case of `CNCCN(C)Cc1cccc(-c2cc(C(=O)N[C@@H](C)c3ccccc3)c3cnn(Cc4ccccn4)c3n2)c1` [Compound 225], the IC50 was 38.1 nM.

Regarding `Cc1cc(CNC(=O)c2cc(-c3cccc(CN(C)CCN)c3)nc3c2cnn3C(C)C)no1` [Compound 184], the 50% inhibitory concentration (IC50) stood at 11.7 nM.

Take `Cc1cc(C)c(CNC(=O)c2cc(-c3ccc(CN(C)CCN4CCCC4)cc3)nc3c2cnn3C(C)C)c(=O)[nH]1` [Compound 364]: the IC50 is 50000 nM.

Regarding `CNCCN(C)Cc1cccc(-c2cc(N(CC3CC3)CC3CC3)c3cnn(C(C)C)c3n2)c1` [Compound 218], the IC50 came to 30.9 nM.

With `CNCCN(C)Cc1cccc(-c2cc(C(=O)N[C@@H](C)c3ccccc3)c3cn(Cc4cccnc4)nc3n2)c1` [Compound 236], the IC50 was found to be 46 nM.

In the case of `CCOC(=O)c1cc(-c2cccc(CN(C)CCNC)c2)nc2c1cnn2CC(F)(F)F` [Compound 316], the IC50 was determined as 379 nM.

As to `CNCCN(C)Cc1cccc(-c2cc(C(=O)NCc3ccccc3Cl)c3cnn(C(C)C)c3n2)c1` [Compound 268], the IC50 was 77.3 nM.

For `CNCCN(C)Cc1cccc(-c2cc(CN(C)OC)c3cnn(C(C)C)c3n2)c1` [Compound 264], the IC50 turned out to be 74.1 nM.

Take `CNCCN(C)Cc1cccc(-c2cc(C(=O)N[C@@H](C)c3ccccc3)c3cn(Cc4ccccc4F)nc3n2)c1` [Compound 305]: the IC50 turned out to be 240 nM.

As to `CNCCN(C)Cc1cccc(-c2cc(-c3csc(C)n3)c3cnn(C(C)C)c3n2)c1` [Compound 178], the IC50 was determined as 7.51 nM.

Turning to `CNCCN(C)Cc1cccc(-c2cc(C(=O)NC3CCOCC3)c3cnn(CC4CC4)c3n2)c1` [Compound 314], the 50% inhibitory concentration (IC50) turned out to be 334 nM.

For `CNCCN(C)Cc1cccc(-c2cc(C(=O)N[C@@H](C)c3ccccc3)c3cn(Cc4ccccc4)nc3n2)c1` [Compound 213], the IC50 was found to be 25.4 nM.

For the compound `CNCCN(C)Cc1cccc(-c2cc(C(=O)NCC3CCOCC3)c3cnn(CC4CC4)c3n2)c1` [Compound 285], the IC50 turned out to be 139 nM.

Take `CNCCN(C)Cc1cccc(-c2cc(C(=O)N3CCOCC3)c3cnn(C(C)C)c3n2)c1` [Compound 321]: the IC50 was 453 nM.

Turning to `Cc1cc(C)c(CNC(=O)c2cc(-c3cccc(CNCCN(C)C)c3)nc3c2cnn3C(C)C)c(=O)[nH]1` [Compound 369], the IC50 worked out at 501 nM.

In the case of `CNCCN(C)Cc1cccc(-c2cc(C(=O)NCC3CCOCC3)c3cnn(Cc4ccccn4)c3n2)c1` [Compound 318], the half-maximal inhibitory concentration (IC50) came to 398 nM.

Consider `CNCCN(C)Cc1cccc(-c2cc(Nc3ccncc3)c3cnn(C(C)C)c3n2)c1` [Compound 191], for which the IC50 amounted to 12.9 nM.

For `CNCCN(C)Cc1cccc(-c2cc(C(=O)NC(C)c3ccccc3)c3cn(C4CCOCC4)nc3n2)c1` (stereo not shown) [Compound 312], the IC50 was 311 nM.

For the compound `CNCCN(C)Cc1cccc(-c2cc(C(=O)NC(C)c3ccccc3)c3cnn(C4CCOCC4)c3n2)c1` (stereo not shown) [Compound 248], the IC50 is 55.5 nM.

As to `CNCCN(C)Cc1cccc(-c2cc(N3CCCCC3)c3cnn(C(C)C)c3n2)c1` [Compound 177], the IC50 is 7.35 nM.

On to `CNCCN(C)Cc1cccc(-c2cc(-c3ccncc3)c3cnn(C(C)C)c3n2)c1` [Compound 196], for which the half-maximal inhibitory concentration (IC50) came to 14.3 nM.

On to `CNCCN(C)Cc1cccc(-c2cc(C(=O)N[C@@H](C)c3ccccc3)c3cn(Cc4ccccn4)nc3n2)c1` [Compound 221], for which the 50% inhibitory concentration (IC50) was 32.6 nM.

As to `CNCCN(C)Cc1cccc(-c2cc(C(=O)NCC3CCOCC3)c3cnn(CC#N)c3n2)c1` [Compound 306], the IC50 turned out to be 243 nM.

As for `CNCCN(C)Cc1cccc(-c2cc(C(=O)N3CCC(F)(F)C3)c3cnn(C(C)C)c3n2)c1` [Compound 299], the 50% inhibitory concentration (IC50) turned out to be 203 nM.

Consider `CC(C)n1ncc2c(C(=O)NCC3COC3)cc(-c3cccc(CN(C)CCN)c3)nc21` [Compound 204], for which the IC50 amounted to 19.2 nM.

In the case of `CNCCN(C)Cc1cccc(-c2cc(C(=O)N[C@@H](C)c3ccccc3)c3cn(Cc4ccncc4)nc3n2)c1` [Compound 216], the IC50 turned out to be 29.9 nM.

Consider `CNCCN(C)Cc1cccc(-c2cc(C(=O)N(C)C3CCOCC3)c3cnn(C(C)C)c3n2)c1` [Compound 320], for which the IC50 was determined as 410 nM.

Turning to `CNCCN(C)Cc1cccc(-c2cc(C(=O)N3CCC(F)C3)c3cnn(C(C)C)c3n2)c1` (stereo not shown) [Compound 313], the IC50 is 312 nM.

As to `CNCCN(C)Cc1cccc(-c2cc(C(=O)N3CCC(OC)C3)c3cnn(C(C)C)c3n2)c1` (stereo not shown) [Compound 302], the 50% inhibitory concentration (IC50) was determined as 233 nM.

Consider `CNCCN(C)Cc1cccc(-c2cc(C(O)C3CCOCC3)c3cnn(C(C)C)c3n2)c1` (stereo not shown) [Compound 315], for which the IC50 is 368 nM.

As for `CNCCN(C)Cc1cccc(-c2cc(C(=O)N(C)CC(F)(F)F)c3cnn(C(C)C)c3n2)c1` [Compound 310], the IC50 amounted to 283 nM.

For `CC(C)n1cc2c(C(=O)NC3CCOCC3)cc(-c3cccc(CN(C)CCN)c3)nc2n1` [Compound 308], the IC50 worked out at 254 nM.

Take `CNCCN(C)Cc1cccc(-c2cc(OCC3CC3)c3cnn(C(C)C)c3n2)c1` [Compound 203]: the IC50 turned out to be 19.2 nM.

For `Cc1cc(C)c(CNC(=O)c2cc(-c3cc(CN(C)CCN)ccc3C)cc3c2cnn3C(C)C)c(=O)[nH]1` [Compound 389], the half-inhibitory concentration (IC50) is 232 nM.

With `CNCCN(C)Cc1cccc(-c2cc(C(=O)NCC3CCOCC3)c3cnn(Cc4cccnc4)c3n2)c1` [Compound 317], the IC50 was 386 nM.

With `CNCCN(C)Cc1cccc(-c2cc(NCC3CC3)c3cnn(C(C)C)c3n2)c1` [Compound 226], the half-maximal inhibitory concentration (IC50) came to 39.5 nM.

For the compound `CNCCN(C)Cc1cccc(-c2cc(-c3cn[nH]c3)c3cnn(C(C)C)c3n2)c1` [Compound 192], the half-inhibitory concentration (IC50) was 13.1 nM.

Take `CNCCN(C)Cc1cccc(-c2cc(C(=O)N[C@@H](C)c3ccccc3)c3cnn(Cc4cccnc4)c3n2)c1` [Compound 249]: the concentration for half-maximal inhibition (IC50) was 57.3 nM.

As to `CNCCN(C)Cc1cccc(-c2cc(C(=O)N3Cc4ccccc4C3)c3cnn(C(C)C)c3n2)c1` [Compound 291], the IC50 turned out to be 168 nM.

As for `Cc1c(C(=O)NCC2CCOCC2)cc(-c2cccc(CN(C)CCN)c2)cc1N(C)CC1CC1` [Compound 267], the IC50 worked out at 75.2 nM.

Consider `CNCCN(C)Cc1cccc(-c2cc(C(=O)N3CCSCC3)c3cnn(C(C)C)c3n2)c1` [Compound 322], for which the concentration for half-maximal inhibition (IC50) turned out to be 456 nM.

`CNCCN(C)Cc1cccc(-c2cc(-c3c(C)n[nH]c3C)c3cnn(C(C)C)c3n2)c1` [Compound 200]: the IC50 worked out at 16.7 nM.

As for `CNCCN(C)Cc1cccc(-c2cc(C(=O)NCC3COC3)c3cnn(C(C)C)c3n2)c1` [Compound 219], the half-maximal inhibitory concentration (IC50) worked out at 31.6 nM.
